Paper PMC4330362, “The ATP-mediated formation of the YgjD–YeaZ–YjeE complex is required for the biosynthesis of tRNA t^6A in Escherichia coli” (Nucleic Acids Research, 2015)

Key:
[1] = test system: Nc1ncnc2c1ncn2[C@@H]1O[C@H](COP(=O)(O)OP(=O)(O)OP(=O)(O)O)[C@@H](O)[C@H]1O; assay: purified protein; conditions: 50 mM HEPES pH 7.5, 20 °C, YjeE at 2 molar equivalents
YgjD–YeaZ [2] = molecular target: T1, YgjD–YeaZ (Escherichia coli, UniProt P05852+P76256); assay: ITC; assay type: binding
T1 construct: gene tsaD; 1:1 heterodimer of full-length YgjD (337 residues) and YeaZ (231 residues), each C-terminally 6xHis tagged, expressed in E. coli BL21(DE3); nucleotide sites in the YgjD active site and at the YgjD-YeaZ interface

YgjD = molecular target: T2, YgjD (Escherichia coli, UniProt P05852); assay: ITC; assay type: binding
T2 construct: gene tsaD; full length (337 residues), C-terminal 6xHis tag, expressed in E. coli BL21(DE3) from pET9a; homodimer in solution

[3] = molecular target: YeaZ (Salmonella typhimurium) (UniProt Q7CQE0); conditions: cited from earlier work
YjeE [4] = molecular target: T3, YjeE (Escherichia coli, UniProt P0AF67); assay: ITC; assay type: binding
T3 construct: gene tsaE; full length, C-terminal Strep II tag, expressed in E. coli BL21(DE3) from pET28a; monomer-dimer equilibrium

YjeE [5] = molecular target: T4, YjeE (Escherichia coli, UniProt P0AF67, Y82A); assay: ITC; assay type: binding
T4 construct: gene tsaE; full length, C-terminal Strep II tag, expressed in E. coli BL21(DE3) from pET28a; monomer-dimer equilibrium

YgjD–YeaZ [6] = molecular target: T5, YgjD–YeaZ (Escherichia coli, UniProt P05852+P76256, P05852:V85E); assay: crystal structure; assay type: binding; conditions: crystallised in presence of ATP; no nucleotide at the interface
T5 construct: gene tsaD; 1:1 heterodimer of full-length YgjD (337 residues) and YeaZ (231 residues), each C-terminally 6xHis tagged, expressed in E. coli BL21(DE3); nucleotide sites in the YgjD active site and at the YgjD-YeaZ interface

YgjD–YeaZ [7] = molecular target: T1, YgjD–YeaZ; assay: crystal structure […] A; assay type: binding; conditions: cocrystallised with ATP and MgCl2; two ADP: YgjD active site (Mg2+, Fe) and YgjD-YeaZ interface; no heat signal by ITC
YjeE [8] = molecular target: T6, YjeE (Escherichia coli, UniProt P0AF67, W109A); assay: ITC; assay type: binding
T6 construct: gene tsaE; full length, C-terminal Strep II tag, expressed in E. coli BL21(DE3) from pET28a; monomer-dimer equilibrium

[9] = molecular target: the molecule itself; assay: SEC; HiLoad 16/60 Superdex 75 pg; single proteins and equimolar mixture

In the case of “YgjD–YeaZ–2xYjeE complex (Escherichia coli K-12)”, the Km [1] is reported as 644 µM and the kcat [1] is reported as 0.4 s⁻¹.

`Nc1ncnc2c1ncn2[C@@H]1O[C@H](COP(=O)(O)CP(=O)(O)OP(=O)(O)O)[C@@H](O)[C@H]1O` [AMPCPP] gave a Kd (YgjD–YeaZ [2]) of 0.7 ± 0.011 µM and a Kd (YgjD) of 1.62 ± 0.088 µM.

In the case of YgjD (from UniProt P40731), the Kd [3] is given as 0.3 µM.

With `Nc1ncnc2c1ncn2[C@@H]1O[C@H](CO[P@](=O)(O)O[P@](=O)(O)O[P@@](=O)(O)S)[C@@H](O)[C@H]1O` [ATPγS] the Kd (YjeE [4]) was 20.4 ± 1.32 µM and the Kd (YjeE [5]) was 8.9 ± 0.013 µM.

With `Nc1ncnc2c1ncn2[C@@H]1O[C@H](COP(=O)(O)OP(=O)(O)OP(=O)(O)O)[C@@H](O)[C@H]1O` [ATP] the crystal structure (YgjD–YeaZ [6]) was “YgjD^V85E(ATP)–YeaZ crystal structures under accession number”.

In the case of `Nc1ncnc2c1ncn2[C@@H]1O[C@H](COP(=O)(O)OP(=O)(O)O)[C@@H](O)[C@H]1O` [ADP], the “crystal structure 2.3 A” value (YgjD–YeaZ [7]) is reported as “An ADP molecule could unequivocally fit the density”, the Kd (YjeE [4]) is reported as 6.54 ± 0.053 µM and the Kd (YjeE [8]) is reported as 4.83 ± 0.022 µM.

B1: YgjD (TsaD) (enzyme, Escherichia coli K-12, UniProt P05852 1-337, looked up)
chain: MRVLGIETSCDETGIAIYDDEKGLLANQLYSQVKLHADYGGVVPELASRDHVRKTVPLIQAALKESGLTAKDIDAVAYTAGPGLVGALLVGATVGRSLAFAWDVPAIPVHHMEGHLLAPMLEDNPPEFPFVALLVSGGHTQLISVTGIGQYELLGESIDDAAGEAFDKTAKLLGLDYPGGPLLSKMAAQGTAGRFVFPRPMTDRPGLDFSFSGLKTFAANTIRDNGTDDQTRADIARAFEDAVVDTLMIKCKRALDQTGFKRLVMAGGVSANRTLRAKLAEMMKKRRGEVFYARPEFCTDNGAMIAYAGMVRFKAGATADLGVSVRPRWPLAELPAA
notes: YgjD (TsaD), Escherichia coli K-12, 337 residues; gene amplified from genomic DNA, cloned in pET9a; Alone it is a homodimer by gel filtration and SAXS; also called Ec–YgjD; source: E. coli BL21(DE3), purified (details in the Supplementary Materials)
In the case of B1, the “stoichiometry N” value [9] is reported as 2.
